Reference: publication PMC4466645 (Oncotarget, 2015)
Each block holds one molecule with its values, some of them ahead of it.

How the values were obtained:
[1] = design: method as in PMID 23693152; settings: cited from earlier work
[2] = design: method as in PMID 23693152; settings: cited from earlier work; remark: listed apart in the source
Mer = Mer (Homo sapiens, UniProt Q12866); test: Microfluidic capillary electrophoresis (MCE) enzymatic assay, Mer; assay type: biochemical; settings: ATP at Km
Mer, sequence (Q12866 21-999): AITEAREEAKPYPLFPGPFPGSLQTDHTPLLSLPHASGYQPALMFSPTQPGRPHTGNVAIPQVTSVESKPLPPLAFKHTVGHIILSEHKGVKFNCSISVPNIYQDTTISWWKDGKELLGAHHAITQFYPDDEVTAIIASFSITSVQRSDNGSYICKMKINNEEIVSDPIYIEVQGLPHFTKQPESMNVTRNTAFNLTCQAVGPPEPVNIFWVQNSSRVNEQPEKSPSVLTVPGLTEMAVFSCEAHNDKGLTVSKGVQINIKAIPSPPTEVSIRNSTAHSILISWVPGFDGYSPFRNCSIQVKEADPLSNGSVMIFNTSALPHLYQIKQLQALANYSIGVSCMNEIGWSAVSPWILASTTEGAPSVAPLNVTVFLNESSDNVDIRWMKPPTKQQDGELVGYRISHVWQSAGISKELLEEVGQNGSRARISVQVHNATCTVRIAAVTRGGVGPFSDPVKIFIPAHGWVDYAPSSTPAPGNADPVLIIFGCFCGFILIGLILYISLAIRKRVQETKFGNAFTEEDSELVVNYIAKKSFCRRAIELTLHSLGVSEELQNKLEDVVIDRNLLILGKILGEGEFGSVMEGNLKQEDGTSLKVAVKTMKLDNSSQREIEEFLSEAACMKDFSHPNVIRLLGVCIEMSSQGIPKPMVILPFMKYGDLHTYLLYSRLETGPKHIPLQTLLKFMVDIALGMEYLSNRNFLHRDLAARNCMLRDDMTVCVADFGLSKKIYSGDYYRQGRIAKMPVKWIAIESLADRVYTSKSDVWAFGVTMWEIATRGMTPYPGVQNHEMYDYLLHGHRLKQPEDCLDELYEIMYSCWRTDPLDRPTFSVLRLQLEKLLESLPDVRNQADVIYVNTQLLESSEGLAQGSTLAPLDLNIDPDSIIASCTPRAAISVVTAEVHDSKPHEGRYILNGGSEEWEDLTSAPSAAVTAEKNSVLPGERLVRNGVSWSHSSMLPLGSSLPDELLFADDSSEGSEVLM

[3] = system: AML cell lines expressing Mer or Flt3 internal tandem duplication (ITD); test: Apoptosis by flow cytometry, AML cell lines expressing Mer or Flt3-ITD (all lines together)
Method: (§2) To assess apoptosis, AML cell lines were cultured at 3 × 10^5 cells, and 1 × 10^6 AML patient blasts were co-cultured with 3.5 × 10^5 HS27 cells per condition in 24 well plates, and treated for 72 hours. […] Flow cytometry data were analyzed using Modfit Cell Cycle Analysis software (Verity Software House). In replating assays, cells were similarly plated and treated, then harvested cells were washed twice, and 1.5 × 10^4 viable cells/ml were cultured in cRPMI for six days. Six days after replating, viable myeloblast count was determined by trypan blue exclusion using a Cedex XS Analyzer (Roche).

Flt3 = Flt3 (Homo sapiens, UniProt P36888); test: Microfluidic capillary electrophoresis (MCE) enzymatic assay, Flt3; assay type: biochemical; settings: ATP at Km
Flt3, sequence (P36888 27-993): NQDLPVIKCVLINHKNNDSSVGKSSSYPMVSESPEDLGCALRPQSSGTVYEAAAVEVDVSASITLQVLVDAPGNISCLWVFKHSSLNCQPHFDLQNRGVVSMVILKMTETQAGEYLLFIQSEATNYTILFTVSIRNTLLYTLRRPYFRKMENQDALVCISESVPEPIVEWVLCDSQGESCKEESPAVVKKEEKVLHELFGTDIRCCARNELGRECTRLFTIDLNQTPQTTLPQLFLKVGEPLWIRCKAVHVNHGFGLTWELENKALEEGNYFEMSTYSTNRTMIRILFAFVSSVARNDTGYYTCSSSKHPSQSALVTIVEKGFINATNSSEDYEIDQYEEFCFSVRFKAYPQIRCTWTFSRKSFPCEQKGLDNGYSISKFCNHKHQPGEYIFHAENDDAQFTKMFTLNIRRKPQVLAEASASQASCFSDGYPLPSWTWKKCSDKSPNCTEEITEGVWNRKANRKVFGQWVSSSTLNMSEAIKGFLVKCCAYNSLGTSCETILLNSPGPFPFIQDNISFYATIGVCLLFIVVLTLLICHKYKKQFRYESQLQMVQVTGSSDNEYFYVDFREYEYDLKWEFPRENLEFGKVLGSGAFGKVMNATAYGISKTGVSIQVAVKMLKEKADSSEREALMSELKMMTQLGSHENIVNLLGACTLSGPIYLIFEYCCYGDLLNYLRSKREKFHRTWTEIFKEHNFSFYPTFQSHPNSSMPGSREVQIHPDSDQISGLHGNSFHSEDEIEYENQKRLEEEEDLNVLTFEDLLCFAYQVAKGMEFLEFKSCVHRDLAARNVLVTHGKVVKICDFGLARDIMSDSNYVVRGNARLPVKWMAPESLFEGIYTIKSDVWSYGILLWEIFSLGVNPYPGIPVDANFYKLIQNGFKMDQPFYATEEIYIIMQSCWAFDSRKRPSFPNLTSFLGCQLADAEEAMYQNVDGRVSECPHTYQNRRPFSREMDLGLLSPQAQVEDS

AML cell lines = test: Cell cycle analysis (propidium iodide, ModFit) in AML cell lines; settings: significant at the 300 nM dose, 72 hours
Method: as §2

Kasumi-1 cell line [4] = test: Apoptosis by flow cytometry (YO-PRO-1 iodide / propidium iodide), Kasumi-1; settings: Kasumi-1, 300 nM, 72 hour; vehicle 30 ± 7%
Method: as §2

Flt3-ITD cell lines = test: Apoptosis by flow cytometry, Flt3-ITD cell lines; assay type: cell-based; settings: 72 hours, range over Flt3-ITD cell lines
Method: To assess apoptosis, AML cell lines were cultured at 3 × 10^5 cells, and 1 × 10^6 AML patient blasts were co-cultured with 3.5 × 10^5 HS27 cells per condition in 24 well plates, and treated for 72 hours. Harvested cells were washed, resuspended in PBS containing 1 μM YO-PRO®-1 iodide (Invitrogen) and 1.5 μM propidium iodide (PI) (Invitrogen), and incubated on ice for 15–20 minutes. […] . Flow cytometry data were analyzed using Modfit Cell Cycle Analysis software (Verity Software House). In replating assays, cells were similarly plated and treated, then harvested cells were washed twice, and 1.5 × 10^4 viable cells/ml were cultured in cRPMI for six days. Six days after replating, viable myeloblast count was determined by trypan blue exclusion using a Cedex XS Analyzer (Roche).

MOLM-13 cell line = test: Apoptosis by flow cytometry (YO-PRO-1 iodide / propidium iodide), MOLM-13; settings: MOLM-13, 300 nM, 72 hours; vehicle 8 ± 1%
Method: as §2

[5] = Pharmacokinetics in a murine model; settings: mouse, in vivo, po
TRKC = TRKC (Homo sapiens, UniProt Q16288); test: Protein kinase profiling panel (Carna Biosciences), TRKC; settings: read-out: Percent Inhibition at 46 nM, TRKC
TRKC, sequence (Q16288 32-839): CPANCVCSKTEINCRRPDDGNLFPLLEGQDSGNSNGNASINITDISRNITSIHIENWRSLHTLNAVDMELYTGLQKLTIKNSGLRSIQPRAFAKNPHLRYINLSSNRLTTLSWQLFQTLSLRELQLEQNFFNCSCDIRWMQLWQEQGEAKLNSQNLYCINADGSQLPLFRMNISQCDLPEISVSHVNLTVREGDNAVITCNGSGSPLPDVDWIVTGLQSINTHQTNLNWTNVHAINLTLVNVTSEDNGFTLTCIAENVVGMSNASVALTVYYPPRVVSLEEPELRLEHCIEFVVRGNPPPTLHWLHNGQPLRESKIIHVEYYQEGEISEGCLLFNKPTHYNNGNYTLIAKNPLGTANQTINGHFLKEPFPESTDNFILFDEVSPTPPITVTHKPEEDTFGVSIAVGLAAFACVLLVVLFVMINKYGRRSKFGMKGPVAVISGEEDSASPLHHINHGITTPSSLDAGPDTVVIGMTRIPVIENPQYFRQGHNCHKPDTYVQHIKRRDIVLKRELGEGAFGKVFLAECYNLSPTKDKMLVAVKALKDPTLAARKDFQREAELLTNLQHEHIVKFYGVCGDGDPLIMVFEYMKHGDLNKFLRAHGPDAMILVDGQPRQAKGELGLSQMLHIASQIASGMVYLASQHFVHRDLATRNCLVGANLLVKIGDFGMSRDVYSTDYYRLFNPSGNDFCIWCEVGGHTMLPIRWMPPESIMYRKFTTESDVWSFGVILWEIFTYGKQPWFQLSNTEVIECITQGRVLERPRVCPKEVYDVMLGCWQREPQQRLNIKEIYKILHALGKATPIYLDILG

[6] = system: AML cell lines expressing Mer or Flt3 internal tandem duplication (ITD); test: Colony formation, AML cell lines expressing Mer or Flt3-ITD (all lines together); assay type: cell-based; settings: compared to treatment with vehicle
Method: Cell lines were plated at a density of 1000 cells/ml in 0.35% agar over 0.5% agar base layer. […] Colonies were grown for 14 (NOMO-1, MV4;11, MOLM-13) or 21 days (Kasumi-1) prior to staining with 1 mg/ml nitrotetrazolium blue (Sigma-Aldrich). Treatment-containing medium was renewed twice weekly. […]. Human mononuclear cells were isolated from umbilical cord blood samples using Ficoll-Paque PLUS (GE Healthcare Life Sciences). […]. Cell line and patient sample colonies were counted using a GelCount colony counter (Oxford Optronix) and cord blood colonies were manually counted in a blinded, non-biased manner.

[7] = system: Erk1/2, Akt and Stat6 phosphorylation; test: Downstream signaling immunoblot in Mer expressing cell lines; assay type: cell-based; settings: two hour treatment
Method: Whole cell lysates were prepared and proteins were resolved on Tris-Glycine SDS-PAGE gels (Invitrogen) and transferred onto nitrocellulose membranes. Membranes were blocked in tris-buffered saline with 0.1% Tween-20 containing 5% bovine serum albumin (when probing for Flt3) or 5% milk (when probing for all other molecules). For immunoprecipitation assays, cells were plated and treated as above, then treated with pervanadate for 10 minutes prior to cell lysis to stabilize the phosphorylation status. With the use of pervandate, it was not necessary to stimulate cells with exogenous Mer or Flt3 ligands (other than from fetal bovine serum) to detect phosphorylated Mer and Flt3 proteins. Anti-Mer antibody or anti-Flt3 and rec-Protein G-sepharose beads (Invitrogen) were added and lysates were incubated overnight on a rocking platform. Beads were washed and eluted proteins were resolved as above. Immunoprecipitate membranes were probed with an anti-phospho-Mer or anti-phospho-Flt3 antibody. After visualization, membranes were stripped and reprobed for total protein. The following antibodies were used according to manufacturer recommendations: anti-Mer (ab52968, AbCam); anti-phospho-Mer (Phosphosolutions Inc.); anti-Flt3 (sc-480), anti-Actin (sc-1616), anti-pan-Trk (sc-11), donkey-anti-goat IgG-HRP (sc-2020) (Santa Cruz Biotechnology); anti-phospho-Flt3 (#3461), anti-phospho-Stat6 (Tyr641, #9364), anti-Stat6, (#9362), anti-phospho-Stat5 (Tyr694, #9359), anti-Stat5 (#9358), anti-phospho-AKT (Ser473, #9271L), anti-AKT (#9272), anti-phospho-p44/42-MAPK (ERK1/2, Thr202/Tyr204, #9106), anti-p44/42-MAPK (#9102), anti-PARP (#9542), anti-Caspase-3 (#9665), anti-Tyro-3 (#5585) (Cell Signaling Technology); anti-Axl (AF154, R&D Systems); goat-anti-mouse IgG-HRP, goat-anti-rabbit IgG-HRP (BioRad). Proteins were visualized by horseradish peroxidase chemiluminescence detection (Perkin-Elmer).

MOLM-13 = test: Soft agar colony formation assay, MOLM-13; assay type: cell-based; settings: MOLM-13, 50 nM, 14 days, normalized to vehicle
Method: (§1) Cell lines were plated at a density of 1000 cells/ml in 0.35% agar over 0.5% agar base layer. […] Colonies were grown for 14 (NOMO-1, MV4;11, MOLM-13) or 21 days (Kasumi-1) prior to staining with 1 mg/ml nitrotetrazolium blue (Sigma-Aldrich). Treatment-containing medium was renewed twice weekly. […] Human mononuclear cells were isolated from umbilical cord blood samples using Ficoll-Paque PLUS (GE Healthcare Life Sciences). […] Cell line and patient sample colonies were counted using a GelCount colony counter (Oxford Optronix) and cord blood colonies were manually counted in a blinded, non-biased manner.

TRKB = TRKB (Homo sapiens, UniProt Q16620); test: Protein kinase profiling panel (Carna Biosciences), TRKB; settings: read-out: Percent Inhibition at 46 nM, TRKB
TRKB, sequence (Q16620 32-822): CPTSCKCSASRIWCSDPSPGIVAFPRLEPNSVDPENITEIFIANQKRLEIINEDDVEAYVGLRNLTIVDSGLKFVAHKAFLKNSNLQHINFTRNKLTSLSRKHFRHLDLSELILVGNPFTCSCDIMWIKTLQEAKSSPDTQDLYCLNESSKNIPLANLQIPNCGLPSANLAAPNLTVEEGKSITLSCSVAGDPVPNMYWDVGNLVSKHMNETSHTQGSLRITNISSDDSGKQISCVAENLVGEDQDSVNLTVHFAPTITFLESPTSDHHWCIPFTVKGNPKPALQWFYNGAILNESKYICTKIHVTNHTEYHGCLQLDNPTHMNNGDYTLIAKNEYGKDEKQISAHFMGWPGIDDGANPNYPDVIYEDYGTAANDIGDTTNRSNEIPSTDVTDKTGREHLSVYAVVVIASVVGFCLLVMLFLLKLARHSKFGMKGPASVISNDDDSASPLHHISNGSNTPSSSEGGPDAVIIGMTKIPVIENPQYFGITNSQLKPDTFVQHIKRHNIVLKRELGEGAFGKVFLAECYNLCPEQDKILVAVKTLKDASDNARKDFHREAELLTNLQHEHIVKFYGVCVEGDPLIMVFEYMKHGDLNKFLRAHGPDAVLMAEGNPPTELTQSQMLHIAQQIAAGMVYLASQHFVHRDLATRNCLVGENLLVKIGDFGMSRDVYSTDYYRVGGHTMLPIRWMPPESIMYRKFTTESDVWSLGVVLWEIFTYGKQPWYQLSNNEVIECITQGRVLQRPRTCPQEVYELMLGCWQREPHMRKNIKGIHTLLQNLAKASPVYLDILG

MV4;11 = test: Soft agar colony formation assay, MV4;11; assay type: cell-based; settings: MV4;11, 50 nM, 14 days, normalized to vehicle
Method: as §1

MV4;11 cell line [8] = test: Apoptosis by flow cytometry (YO-PRO-1 iodide / propidium iodide), MV4;11; settings: MV4;11, 300 nM, 72 hours; vehicle 13 ± 3%
[9] = system: Erk1/2, Akt and Stat5 phosphorylation; test: Downstream signaling immunoblot in Flt3-ITD cell lines; assay type: cell-based; settings: 50 nM, two hour treatment
Method: Whole cell lysates were prepared and proteins were resolved on Tris-Glycine SDS-PAGE gels (Invitrogen) and transferred onto nitrocellulose membranes. Membranes were blocked in tris-buffered saline with 0.1% Tween-20 containing 5% bovine serum albumin (when probing for Flt3) or 5% milk (when probing for all other molecules). For immunoprecipitation assays, cells were plated and treated as above, then treated with pervanadate for 10 minutes prior to cell lysis to stabilize the phosphorylation status. With the use of pervandate, it was not necessary to stimulate cells with exogenous Mer or Flt3 ligands (other than from fetal bovine serum) to detect phosphorylated Mer and Flt3 proteins. Anti-Mer antibody or anti-Flt3 and rec-Protein G-sepharose beads (Invitrogen) were added and lysates were incubated overnight on a rocking platform. Beads were washed and eluted proteins were resolved as above. Immunoprecipitate membranes were probed with an anti-phospho-Mer or anti-phospho-Flt3 antibody. After visualization, membranes were stripped and reprobed for total protein. […]

NOMO-1 = test: Soft agar colony formation assay, NOMO-1; assay type: cell-based; settings: NOMO-1, 100 nM, 14 days, normalized to vehicle
Method: as §1

[10] = system: primary AML patient samples; test: Apoptosis by flow cytometry in primary AML patient samples co-cultured with HS27 stromal cells; assay type: cell-based, human
Source text: Cell lines MV4;11, NOMO-1, KG-1a, NB-4, and HEL were obtained from the German Collection of Microorganisms and Cell Culture (DSMZ); Kasumi-1 and U937 were obtained from the American Type Culture Collection (ATCC); MOLM-13 was a gift from Robert Arceci (Johns Hopkins); HS-27 was a gift from Kathrin Bernt (University of Colorado). AML cell lines were maintained in RPMI medium (HyClone) supplemented with 10% FBS and penicillin/streptomycin (cRPMI). Cell line identities were confirmed using short tandem repeat microsatellite loci analysis. HS-27 stromal cells were maintained in DMEM with 10% FBS and penicillin/streptomycin prior to co-culture. De-identified cord blood samples and primary patient myeloblasts apheresed from peripheral blood were obtained from the University of Colorado after written informed consent in accordance with the Declaration of Helsinki. Experiments conformed to regulatory standards as approved by the Colorado Multiple Institutional Review Board. AML patient samples were maintained as previously described, with HS-27 stromal co-culture for apoptosis and cell cycle experiments.
To assess apoptosis, AML cell lines were cultured at 3 × 10^5 cells, and 1 × 10^6 AML patient blasts were co-cultured with 3.5 × 10^5 HS27 cells per condition in 24 well plates, and treated for 72 hours. Harvested cells were washed, resuspended in PBS containing 1 μM YO-PRO®-1 iodide (Invitrogen) and 1.5 μM propidium iodide (PI) (Invitrogen), and incubated on ice for 15–20 minutes. […] Flow cytometry data were analyzed using Modfit Cell Cycle Analysis software (Verity Software House). In replating assays, cells were similarly plated and treated, then harvested cells were washed twice, and 1.5 × 10^4 viable cells/ml were cultured in cRPMI for six days. Six days after replating, viable myeloblast count was determined by trypan blue exclusion using a Cedex XS Analyzer (Roche).

TrkA [11] = target: T1, TrkA (Homo sapiens, UniProt P04629); test: Protein kinase profiling panel (Carna Biosciences), TRKA; settings: read-out: Percent Inhibition at 46 nM, TRKA
T1 sequence (P04629 33-796): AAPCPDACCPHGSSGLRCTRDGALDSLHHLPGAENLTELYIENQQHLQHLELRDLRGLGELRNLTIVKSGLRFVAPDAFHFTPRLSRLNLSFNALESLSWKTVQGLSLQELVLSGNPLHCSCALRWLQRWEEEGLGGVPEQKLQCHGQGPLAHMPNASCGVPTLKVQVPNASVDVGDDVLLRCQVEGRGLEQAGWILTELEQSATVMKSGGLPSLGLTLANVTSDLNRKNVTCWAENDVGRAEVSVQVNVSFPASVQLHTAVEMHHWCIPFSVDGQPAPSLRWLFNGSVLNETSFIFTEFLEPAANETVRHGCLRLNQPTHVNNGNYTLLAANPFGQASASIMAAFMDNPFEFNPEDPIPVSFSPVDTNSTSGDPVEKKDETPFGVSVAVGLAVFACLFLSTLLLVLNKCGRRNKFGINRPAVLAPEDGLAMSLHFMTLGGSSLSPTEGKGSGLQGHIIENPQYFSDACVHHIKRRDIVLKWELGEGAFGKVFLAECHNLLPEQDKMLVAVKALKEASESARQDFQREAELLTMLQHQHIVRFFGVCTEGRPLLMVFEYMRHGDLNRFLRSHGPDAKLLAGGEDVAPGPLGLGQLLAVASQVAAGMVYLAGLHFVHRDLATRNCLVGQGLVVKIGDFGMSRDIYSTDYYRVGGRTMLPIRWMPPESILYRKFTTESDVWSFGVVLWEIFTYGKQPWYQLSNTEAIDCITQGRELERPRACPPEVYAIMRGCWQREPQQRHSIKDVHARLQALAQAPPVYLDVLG

Kasumi-1 cell line [12] = test: Replating (rebound growth) assay, Kasumi-1; settings: Kasumi-1, 100 nM for 72 hours then washed, replated at 1.5 × 10^4 viable cells/ml; vehicle 2.0 × 10^5
Method: as §2

Kasumi-1 = test: Soft agar colony formation assay, Kasumi-1; assay type: cell-based; settings: Kasumi-1, 100 nM, 21 days, normalized to vehicle
Method: as §1

[13] = system: primary AML patient samples; test: Colony formation in methylcellulose, primary AML patient samples; assay type: cell-based, human
Method: as §1

TrkA [14] = target: T1, TrkA; test: Microfluidic capillary electrophoresis (MCE) enzymatic assay, TrkA
Method: Microfluidic capillary electrophoresis (MCE) enzyme (40 μL, 4 nM Mer) and allowed to incubate for
assay 10 min followed by addition of 32 μL of substrate mix
polypropylene microplate with a final volume of 50μL in reads total, on an EZReader, using upstream voltage =
50mM Hepes, pH 7.4 containing 10mM MgCl2, 1.0 mM −2250V, downstream voltage = −500V and pressure =
DTT, 0.01% Triton X-100, 0.1% bovine serum albumin −1.0 psi (sip time 0.2 sec, buffer 30 sec). The steady-state
(BSA) (MCE Buffer), with 1.0 μM fluorescent substrate velocity was analyzed by linear regression of the peptide
and ATP at Km for each enzyme (Supplemental Table 1). as percent-conversion/min, and a plot of nM compound
70 mM EDTA. Phosphorylated and unphosphorylated using GraphPad Prism (v5.01, GraphPad Software), Y =
Reader software. velocity, X = inhibitor concentration).
Morrison Tight-Binding Method (35).
2.0 nM Mer, and 1.0 μM peptide substrate.

MV4;11 cell line [15] = test: Replating (rebound growth) assay, MV4;11; settings: MV4;11, 50 nM for 72 hours then washed, replated at 1.5 × 10^4 viable cells/ml
Method: as §2

[16] = system: normal umbilical cord blood; test: Colony formation in methylcellulose, normal umbilical cord blood hematopoietic precursors; assay type: cell-based, human
Method: as §1

[17] = system: Mer-expressing cell lines; test: Apoptosis by flow cytometry, Mer-expressing cell lines; settings: 72 hours, range over Mer-expressing cell lines
Method: as §2

SMILES: CCCCNc1ncc2c(-c3ccc(S(=O)(=O)N4CCOCC4)cc3)nn(C3CCC(O)CC3)c2n1 (stereo not shown) [UNC1062]
In vivo pharmacokinetic properties (in words) [1]: poor in vivo pharmacokinetic properties | Solubility (in words) [2]: low solubility

IC50 (Mer): 560 nM | IC50 (Flt3): 220 nM
SMILES: CCCCN(C)c1ncc2c(-c3ccc(F)cc3)nn(C[C@H]3CC[C@H](N)CC3)c2n1 [UNC1653]
Induction of apoptosis (in words) ([3]; 72 hours, Mer-expressing or Flt3-ITD cell lines): did not induce apoptosis

SMILES: CCCCNc1ncc2c(-c3ccc(S(=O)(=O)N4CCOCC4)cc3)cn([C@H]3CC[C@H](O)CC3)c2n1 [UNC1666]
Cell cycle effect (in words) (AML cell lines): accumulation of cells in G2M phase | Cells apoptotic or dead (Kasumi-1 cell line [4]): 76 ± 8% | Cells apoptotic or dead (Flt3-ITD cell lines; 50 nM): 54–67% | Cells apoptotic or dead (Flt3-ITD cell lines; 300 nM): 90–98% | Apoptosis (cells apoptotic or dead) (MOLM-13 cell line): 98 ± 2% | Induction of apoptosis, % of cells ([3]; maximum over cell lines, compared to vehicle): up to 98% | bioavailability [5]: 8% | inhibition at 0.046 µM (TRKC): 98% | Reduction of colony formation [6]: greater than 90% | Erk1/2, Akt and Stat6 phosphorylation ([7]; 50 nM): diminished phosphorylation | Erk1/2, Akt and Stat6 phosphorylation ([7]; 100 nM): moderate decrease | Erk1/2, Akt and Stat6 phosphorylation ([7]; 300 nM): more complete inhibition | Reduction in colonies (MOLM-13): 93 ± 6% | inhibition at 0.046 µM (TRKB): 95% | Reduction in colonies (MV4;11): 61 ± 22% | Apoptosis (cells apoptotic or dead) (MV4;11 cell line [8]): 90 ± 1% | Erk1/2, Akt and Stat5 phosphorylation [9]: near complete ablation of phosphorylation | Reduction in colony formation (NOMO-1): 71 ± 4% | Anti-proliferative effects in patient samples (in words) ([10]; 50 nM, co-culture with stromal cells): near complete induction of apoptosis and growth inhibition | Induction of apoptosis (in words) ([10]; 72 hours, HS27 stromal co-culture): induce apoptosis in all patient samples | Concentrations at which functional effects (decreased ability to evade apoptosis, decreased colony formation) occurred ([10]; AML patient samples that co-expressed Mer and Flt3): 5 to 100 nM | inhibition at 0.046 µM (TrkA [11]): 101% | Viable cell number at Day 6 after replating (Kasumi-1 cell line [12]): 0.3 × 10^5 cells/ml | Reduction in colony formation (Kasumi-1): 90 ± 6% | Concentrations at which patient-derived myeloblasts are sensitive in methylcellulose cultures ([13]; as low as): 5 to 50 nM | Colony formation (in words) ([13]; concentrations as low as 50 nM, in all but one sample, 10 days, methylcellulose): near complete abrogation of colony formation | IC50 (TrkA [14]): 0.57 nM | Viable cell number at Day 6 after replating (MV4;11 cell line [15]; vehicle 10 × 10^5): 2.0 × 10^5 viable cells/ml | Increase in viable cell number over six days after replating (MV4;11 cell line [15]; vehicle 67-fold): 13 fold | Colony formation of normal cord blood hematopoietic precursors (in words) ([16]; 1 μM, methylcellulose, 14 days): trend towards decreased colony formation | Decrease in colony formation of normal cord blood hematopoietic precursors (in words) ([16]; 10 μM, methylcellulose, 14 days): statistically significant | Colony forming potential of hematopoietic progenitors in normal cord blood cultures (in words) ([16]; doses as high as 1 μM): did not affect the colony forming potential | Colony number of normal cord blood hematopoietic precursors (in words) ([16]; doses up to 500 nM, n = 3, methylcellulose, 14 days): no significant reduction in colony number | Induction of apoptosis, % of cells ([17]; 100 nM): 50–67% | Induction of apoptosis, % of cells ([17]; 300 nM): 68–76%
